Literature values, collected in patent publication US5998407A, “Inhibitors of farnesyl-protein transferase” (Merck & Co., Inc., priority 1998, dated 1999).

Tested on: farnesyl-protein transferase
Settings: via inhibition of HMG-CoA reductase

Structure (SMILES) | Indirect inhibition of farnesyl-protein transferase in vivo
CC[C@H](C)C(=O)O[C@H]1CCC=C2C=C[C@H](C)[C@H](CC[C@@H]3C[C@@H](O)CC(=O)O3)[C@H]21 [compactin] | Indirect inhibition of farnesyl-protein transferase in vivo has been demonstrated
CC[C@H](C)C(=O)O[C@H]1C[C@@H](C)C=C2C=C[C@H](C)[C@H](CC[C@@H]3C[C@@H](O)CC(=O)O3)[C@H]21 [lovastatin] | Indirect inhibition of farnesyl-protein transferase in vivo has been demonstrated
